The values that follow come from patent US20230391760A1, “HETEROCYCLIC GLP-1 AGONISTS” (Gasherbrum Bio, Inc., priority 2020, published 2023).

The structures appear in SMILES notation.

The experiment concerns the target GLP-1 Receptor (Homo sapiens, UniProt P43220). The experiment can be described thus: GLP-1R agonist cAMP stimulation assay (HEK293/GLP1R/CRE-LUC cells, cAMP dynamic 2 Kit). Type of experiment: cell-based. To be noted: HEK293/CRE-Luc cell line stably expressing the GLP-1 Receptor, 30 min at 37° C. The method, boiled down: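 HEK293 cells stably expressing human GLP-1R with CRE-luciferase, 1000 cells/well in DPBS with 0.5 mM IBMX and 0.1% BSA, treated with compound in 1/2-log serial dilution for 30 min at 37 °C. cAMP then detected by HTRF (cAMP-d2 plus anti-cAMP cryptate), 1 h at room temperature in the dark.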

Sequence of GLP-1 Receptor (P43220 24-463, species assumed): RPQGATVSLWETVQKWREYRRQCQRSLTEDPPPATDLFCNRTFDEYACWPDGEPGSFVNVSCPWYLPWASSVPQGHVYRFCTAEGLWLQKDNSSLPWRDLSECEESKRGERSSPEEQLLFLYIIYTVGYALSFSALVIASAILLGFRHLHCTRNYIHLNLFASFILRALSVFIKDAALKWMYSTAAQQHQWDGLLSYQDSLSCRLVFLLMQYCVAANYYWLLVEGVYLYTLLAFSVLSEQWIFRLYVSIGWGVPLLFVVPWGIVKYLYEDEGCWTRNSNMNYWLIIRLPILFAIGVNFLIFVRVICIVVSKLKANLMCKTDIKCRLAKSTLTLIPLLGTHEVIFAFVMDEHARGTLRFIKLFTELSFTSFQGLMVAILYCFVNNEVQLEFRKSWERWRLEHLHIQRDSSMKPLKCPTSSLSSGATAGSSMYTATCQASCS

Consider `C[C@]1(c2ccc(C#N)cc2F)Oc2cccc(C3CCN(Cc4nc5cc(-c6noc(=O)[nH]6)ncc5n4C[C@@H]4CCO4)CC3)c2O1` [Compound 433a, 3-fluoro-4-[(2S)-2-methyl-4-{1-[(3-{[(2S)-oxetan-2-yl]methyl}-6-(5-oxo-4,5-dihydro-1,2,4-oxadiazol-3-yl)-3H-imidazo[4,5-c]pyridin-2-yl)methyl]piperidin-4-yl}-2H-1,3-benzodioxol-2-yl]benzonitrile], for which the EC50 (as a rule, the concentration needed to bring the measured effect to its halfway point) is 0.013 nM.
Compound `Fc1cc(Cl)ccc1COc1cccc(C2CCN(Cc3nc4cc(-c5nnn[nH]5)ccc4n3C[C@@H]3CCO3)CC2)n1` [Compound 125a, 2-[(4-{6-[(4-chloro-2-fluorophenyl)methoxy]pyridin-2-yl}piperidin-1-yl)methyl]-1-{[(2S)-oxetan-2-yl]methyl}-5-(1H-1,2,3,4-tetrazol-5-yl)-1H-1,3-benzodiazole] had a concentration for a half-maximal effect (EC50) of 0.056 nM.
With `Fc1cc(Cl)ccc1COc1nccc(C2CCN(Cc3nc4cc(-c5nnc(C(F)(F)F)[nH]5)nnc4n3C[C@@H]3CCO3)CC2)n1` [Compound 508a, 2-[(4-chloro-2-fluorophenyl)methoxy]-4-{1-[(7-{[(2S)-oxetan-2-yl]methyl}-3-[5-(trifluoromethyl)-4H-1,2,4-triazol-3-yl]-7H-imidazo[4,5-c]pyridazin-6-yl)methyl]piperidin-4-yl}pyrimidine] the figure was 0.42 nM.
With `CS(=O)(=O)Nc1ccc2c(c1)nc(CN1CCC(c3cccc(OCc4ccc(Cl)cc4F)n3)CC1)n2C[C@@H]1CCO1` [Compound 108a, (S)—N-(2-((4-(6-((4-chloro-2-fluorobenzyl)oxy)pyridin-2-yl)piperidin-1-yl)methyl)-1-(oxetan-2-ylmethyl)-1H-benzo[d]imidazol-5-yl)methanesulfonamide] the figure was 155 nM; with `Cc1nnc(-c2cc3nc(CN4CCC(c5cccc6c5OC(c5ccc(Cl)cc5F)CO6)CC4)n(C[C@@H]4CCO4)c3cn2)[nH]1` (stereo partly drawn) [Compound 468a, 4-[3-(4-chloro-2-fluorophenyl)-2,3-dihydro-1,4-benzodioxin-5-yl]-1-{[6-(5-methyl-4H-1,2,4-triazol-3-yl)-3-{[(2S)-oxetan-2-yl]methyl}-3H-imidazo[4,5-c]pyridin-2-yl]methyl}piperidine], 0.53 nM; with `Fc1cc(Cl)ccc1COc1cccc(C2=CCN(Cc3nc4cc(-c5nnc(C(F)(F)F)[nH]5)ncc4n3C[C@@H]3CCO3)CC2)c1` [Compound 307a, 4-{3-[(4-chloro-2-fluorophenyl)methoxy]phenyl}-1-[(3-{[(2S)-oxetan-2-yl]methyl}-6-[5-(trifluoromethyl)-4H-1,2,4-triazol-3-yl]-3H-imidazo[4,5-c]pyridin-2-yl)methyl]-1,2,3,6-tetrahydropyridine], 0.26 nM.
In the case of `CO[C@H](C)Cn1c(CN2CCC(c3cccc4c3O[C@@](C)(c3ccc(Cl)cn3)O4)CC2)nc2cc(-c3nnn[nH]3)ncc21` [Compound 429a, 5-chloro-2-[(2S)-4-[1-({3-[(2R)-2-methoxypropyl]-6-(1H-1,2,3,4-tetrazol-5-yl)-3H-imidazo[4,5-c]pyridin-2-yl}methyl)piperidin-4-yl]-2-methyl-2H-1,3-benzodioxol-2-yl]pyridine] it was 0.24 nM; in that of `O=c1[nH]c(-c2cc3nc(CN4CCC(c5cccc6c5OC[C@@H](c5ccc(Cl)cc5)O6)CC4)n(C[C@@H]4CCO4)c3cn2)no1` [Compound 422a, 3-[2-({4-[(2R)-2-(4-chlorophenyl)-2,3-dihydro-1,4-benzodioxin-5-yl]piperidin-1-yl}methyl)-3-{[(2S)-oxetan-2-yl]methyl}-3H-imidazo[4,5-c]pyridin-6-yl]-4,5-dihydro-1,2,4-oxadiazol-5-one], 0.17 nM; in that of `O=C(Nc1ccc2c(c1)nc(CN1CCC(c3cccc(OCc4ccc(Cl)cc4F)n3)CC1)n2C[C@@H]1CCO1)c1ccc(C2CC2)nc1` [Compound 176a, N-{2-[(4-{6-[(4-chloro-2-fluorophenyl)methoxy]pyridin-2-yl}piperidin-1-yl)methyl]-1-{[(2S)-oxetan-2-yl]methyl}-1H-1,3-benzodiazol-5-yl}-6-cyclopropylpyridine-3-carboxamide], 8.6 nM.
The compound `O=C(NC1CC1)c1ccc2c(c1)nc(CN1CCC(c3cccc(OCc4ccc(Cl)cc4F)n3)CC1)n2C[C@@H]1CCO1` [Compound 396a, 2-[(4-{6-[(4-chloro-2-fluorophenyl)methoxy]pyridin-2-yl}piperidin-1-yl)methyl]-N-cyclopropyl-1-{[(2S)-oxetan-2-yl]methyl}-1H-1,3-benzodiazole-5-carboxamide] yielded a 50% effective concentration (EC50) of 3.2 nM.
As to `CC1(c2ccc(F)cc2F)Oc2cccc(C3CCN(Cc4nc5cc(-c6nnc(C(F)(F)F)[nH]6)ccc5n4C[C@@H]4CCO4)CC3)c2O1` (stereo partly drawn) [Compound 259a, 2-({4-[2-(2,4-difluorophenyl)-2-methyl-2H-1,3-benzodioxol-4-yl]piperidin-1-yl}methyl)-1-{[(2S)-oxetan-2-yl]methyl}-5-[5-(trifluoromethyl)-4H-1,2,4-triazol-3-yl]-1H-1,3-benzodiazole], the concentration giving a half-maximal response (EC50) amounted to 0.074 nM.
With `Fc1cc(C(F)(F)F)ccc1COc1cccc(C2CCN(Cc3nc4cc(-c5nnc(C(F)(F)F)[nH]5)ncc4n3C[C@@H]3CCO3)CC2)n1` [Compound 497a, 2-{[2-fluoro-4-(trifluoromethyl)phenyl]methoxy}-6-{1-[(3-{[(2S)-oxetan-2-yl]methyl}-6-[5-(trifluoromethyl)-4H-1,2,4-triazol-3-yl]-3H-imidazo[4,5-c]pyridin-2-yl)methyl]piperidin-4-yl}pyridine] the figure was 0.034 nM.
In the case of `CC1(c2ccc(Cl)cc2)Oc2cccc(C3=CCN(Cc4nc5cc(-c6nnc(C(F)(F)F)[nH]6)ccc5n4C[C@@H]4CCO4)CC3)c2O1` (stereo partly drawn) [Compound 255a, 2-({4-[2-(4-chlorophenyl)-2-methyl-2H-1,3-benzodioxol-4-yl]-1,2,3,6-tetrahydropyridin-1-yl}methyl)-1-{[(2S)-oxetan-2-yl]methyl}-5-[5-(trifluoromethyl)-4H-1,2,4-triazol-3-yl]-1H-1,3-benzodiazole] it was 0.24 nM; in that of `O=C(Nc1ccc2c(c1)nc(CN1CCC(c3cccc(OCc4ccc(Cl)cc4F)n3)CC1)n2C[C@@H]1CCO1)N1CCC(F)(F)C1` [Compound 205a, N-{2-[(4-{6-[(4-chloro-2-fluorophenyl)methoxy]pyridin-2-yl}piperidin-1-yl)methyl]-1-{[(2S)-oxetan-2-yl]methyl}-1H-1,3-benzodiazol-5-yl}-3,3-difluoropyrrolidine-1-carboxamide], 2.8 nM; in that of `CO[C@H](C)Cn1c(CN2CCC(c3cccc4c3O[C@@](C)(c3ccc(C#N)cc3F)O4)CC2)nc2cc(-c3nnc(C(F)(F)F)[nH]3)ncc21` [Compound 442a, 3-fluoro-4-[(2S)-4-[1-({3-[(2R)-2-methoxypropyl]-6-[5-(trifluoromethyl)-4H-1,2,4-triazol-3-yl]-3H-imidazo[4,5-c]pyridin-2-yl}methyl)piperidin-4-yl]-2-methyl-2H-1,3-benzodioxol-2-yl]benzonitrile], 0.033 nM.
In the case of `CC1(c2ccc(Cl)cc2F)Oc2cccc(C3CCN(Cc4nc5cc(-c6nnc(C(F)F)[nH]6)c(F)cc5n4C[C@@H]4CCO4)CC3)c2O1` (stereo partly drawn) [Compound 249a, 2-({4-[2-(4-chloro-2-fluorophenyl)-2-methyl-2H-1,3-benzodioxol-4-yl]piperidin-1-yl}methyl)-5-[5-(difluoromethyl)-4H-1,2,4-triazol-3-yl]-6-fluoro-1-{[(2S)-oxetan-2-yl]methyl}-1H-1,3-benzodiazole] it was 0.27 nM.
